Data on 66 compounds can be found in publication PMC8869358, “High-Throughput Chemical Screening and Structure-Based Models to Predict hERG Inhibition” (Biology, 2022).

Counter-ions that a name gives are not always drawn.

The target in this assay is hERG (Homo sapiens, UniProt Q12809). The assay can be described thus: cell-based. The conditions noted are these: (-LOG10(IC50), µM).
Sequence of hERG (Q12809 whole entry): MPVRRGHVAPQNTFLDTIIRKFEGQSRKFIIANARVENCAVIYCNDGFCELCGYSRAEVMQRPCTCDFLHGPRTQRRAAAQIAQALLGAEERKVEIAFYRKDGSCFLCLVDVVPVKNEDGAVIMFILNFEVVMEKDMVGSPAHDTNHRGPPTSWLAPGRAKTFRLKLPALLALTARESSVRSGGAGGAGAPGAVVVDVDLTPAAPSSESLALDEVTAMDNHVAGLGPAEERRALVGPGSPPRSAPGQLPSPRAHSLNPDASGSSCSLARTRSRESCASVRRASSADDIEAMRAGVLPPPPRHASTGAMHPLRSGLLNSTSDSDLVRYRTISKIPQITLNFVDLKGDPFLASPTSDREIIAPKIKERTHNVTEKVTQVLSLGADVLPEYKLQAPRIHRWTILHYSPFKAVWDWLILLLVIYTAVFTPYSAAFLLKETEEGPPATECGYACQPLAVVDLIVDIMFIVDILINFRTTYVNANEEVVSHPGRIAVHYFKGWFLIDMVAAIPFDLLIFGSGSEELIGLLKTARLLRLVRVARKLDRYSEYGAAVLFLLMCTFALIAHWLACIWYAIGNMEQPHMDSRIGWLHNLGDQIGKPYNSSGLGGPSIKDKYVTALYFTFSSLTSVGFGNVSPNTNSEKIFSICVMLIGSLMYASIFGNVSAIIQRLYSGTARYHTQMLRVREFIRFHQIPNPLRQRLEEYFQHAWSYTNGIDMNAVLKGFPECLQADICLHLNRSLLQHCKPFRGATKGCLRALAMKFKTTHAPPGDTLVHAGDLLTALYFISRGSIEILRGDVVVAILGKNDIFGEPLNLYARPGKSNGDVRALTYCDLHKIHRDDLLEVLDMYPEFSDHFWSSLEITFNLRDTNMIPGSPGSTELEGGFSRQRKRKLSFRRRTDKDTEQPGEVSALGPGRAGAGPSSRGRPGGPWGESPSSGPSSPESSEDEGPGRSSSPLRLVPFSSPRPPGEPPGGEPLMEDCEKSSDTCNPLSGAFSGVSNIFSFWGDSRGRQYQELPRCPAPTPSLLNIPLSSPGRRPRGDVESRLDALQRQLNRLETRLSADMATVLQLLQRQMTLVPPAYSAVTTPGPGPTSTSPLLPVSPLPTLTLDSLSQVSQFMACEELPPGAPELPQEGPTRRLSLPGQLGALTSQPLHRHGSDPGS
Take `CCC(OC(C)=O)C(C[C@H](C)NC)(c1ccccc1)c1ccccc1` (mixture of isomers) [L-Î±lpha-Noracetylmethadol hydrochloride]: the IC50 was 7.53 µM.
Under `COC(=O)C(C)Oc1ccc(Oc2ccc(Cl)cc2Cl)cc1` (racemic) [(+-)-Diclofop-methyl] stands 46.2 µM.
Next, `COC(=O)C1=C(C)NC(C)=C(C(=O)OCCCN2CCC(c3ccccc3)(c3ccccc3)CC2)C1c1cccc([N+](=O)[O-])c1` (racemic) [(+/-) -Niguldipine hydrochloride (1:x)]: 1.25 µM.
Next, `CC(CCc1ccc(O)cc1)NCCc1ccc(O)c(O)c1` (racemic) [DL-Dobutamine]: 16.9 µM; `COC(=O)C1=C(C)NC(C)=C(C(=O)O[C@@H]2CCCN(Cc3ccccc3)C2)[C@@H]1c1cccc([N+](=O)[O-])c1` (racemic) [rac Benidipine hydrochloride]: 12.5 µM; `O[C@@H](CNC[C@H](O)[C@H]1CCc2cc(F)ccc2O1)[C@@H]1CCc2cc(F)ccc2O1` (racemic) [rac Nebivolol hydrochloride]: 2.49 µM.
`N#CC1(N=NC2(C#N)CCCCC2)CCCCC1` [1,1'-Diazene-1,2-diyldicyclohexanecarbonitrile] registered an IC50 of 43.6 µM.
Next, `O=[N+]([O-])c1ccc(Oc2ccc([N+](=O)[O-])cc2)cc1` [1,1'-Oxybis(4-nitrobenzene)]: 32.8 µM; `C=C(C)C(=O)OCC(CC)(COC(=O)C(=C)C)COC(=O)C(=C)C` [1,1,1-Trimethylolpropane trimethacrylate]: 30.2 µM; `Cc1c([N+](=O)[O-])cc2c(c1[N+](=O)[O-])C(C)(C)CC2(C)C` [1,1,3,3,5-Pentamethyl-4,6-dinitro-2,3-dihydro-1H-indene]: 16.7 µM.
Next, `BrC1CCC(Br)C(Br)CCC(Br)C(Br)CCC1Br` (stereo not drawn) [1,2,5,6,9,10-Hexabromocyclododecane]: 19.2 µM; `N#CCCC(Br)(C#N)CBr` (stereo not drawn) [1,2-Dibromo-2,4-dicyanobutane]: 36.7 µM.
Under `BrCC(Br)C1CCC(Br)C(Br)C1` (stereo not drawn) [1,2-Dibromo-4-(1,2-dibromoethyl)cyclohexane] stands 34.5 µM; under `Clc1cc(Cl)c2c(c1)N=C1CCCCCN1C2` [1,3-Dichloro-6,7,8,9,10,12-hexahydroazepino[2,1-b]quinazoline hydrochloride (1:1)], 12.5 µM; under `CCCCCCCCCCn1cc[n+](CCCCCCCCCC)c1C` [1,3-Didecyl-2-methylimidazolium chloride], 0.51 µM.
As to `Nc1ccc(C(=O)OCCCOC(=O)c2ccc(N)cc2)cc1` [1,3-Propanediol, bis(4-aminobenzoate)], half-maximal inhibition (IC50) required 12.3 µM.
Consider `ClC(Cl)(Cl)c1ccc(C(Cl)(Cl)Cl)cc1` [1,4-Bis(trichloromethyl)benzene], for which the IC50 is 14.2 µM.
Regarding `Clc1cnc(Oc2ccc(Oc3ncc(Cl)cc3Cl)cc2)c(Cl)c1` [1,4-Bis[2-(3,5-dichloropyridyloxy)]benzene], the IC50 was 17.4 µM.
Next, `O=C1C=CC(=O)c2ccccc21` [1,4-Naphthoquinone]: 21 µM; `O=C1Cc2ccccc2N1c1c(Cl)cccc1Cl` [1-(2,6-Dichlorophenyl)-2-indolinone]: 21.9 µM.
Under `Clc1ccc(C(c2ccccc2Cl)C(Cl)Cl)cc1` (stereo not drawn) [1-(2-Chlorophenyl)-1-(4-chlorophenyl)-2,2-dichloroethane] stands 21.9 µM; under `CC(=O)OC1(c2ccccc2)CCN(CCc2ccccc2)CC1` [1-(2-Phenylethyl)-4-phenyl-4-acetoxypiperidine], 22.4 µM.
With `ClCCCN1CCN(c2cccc(Cl)c2)CC1` [1-(3-Chlorophenyl)-4-(3-chloropropyl)piperazine hydrochloride], the IC50 was 10.1 µM.
For the compound `CC(C)(C)C(=O)C=Cc1ccc(Cl)cc1` [1-(4-Chlorophenyl)-4,4-dimethylpent-1-en-3-one], the IC50 came out at 43.6 µM.
Under `COc1ccc(C(=O)CC(=O)c2ccc(C(C)(C)C)cc2)cc1` [1-(4-tert-Butylphenyl)-3-(4-methoxyphenyl)propane-1,3-dione] stands 21.3 µM.
`Fc1ccc(C(c2ccc(F)cc2)N2CCNCC2)cc1` [1-(Bis(4-fluorophenyl)methyl)piperazine] showed an IC50 of 19.7 µM.
Under `CCCC[n+]1ccc(C)cc1` [1-Butyl-4-methylpyridinium chloride] stands 43.4 µM; under `CCCCCCCCCCn1cc[n+](C)c1` [1-Decyl-3-methylimidazolium bromide], 15 µM; under `CCCCCCCCCCn1cc[n+](C)c1` [1-Decyl-3-methylimidazolium chloride], 16.7 µM.
Under `CCCCCCCCCCn1cc[n+](C)c1` [1-Decyl-3-methylimidazolium hexafluorophosphate] stands 8.37 µM; under `CCCCCCCCCCn1cc[n+](C)c1` [1-Decyl-3-methylimidazolium trifluoromethanesulfonate], 13.6 µM.
Under `CCCCCCCCCCCCn1cc[n+](C)c1` [1-Dodecyl-3-methylimidazolium chloride] stands 2.87 µM; under `CCCCCCCCCCCCn1cc[n+](C)c1` [1-Dodecyl-3-methylimidazolium hexafluorophosphate], 4.2 µM; under `CCCCCCCCCCCCn1cc[n+](C)c1` [1-Dodecyl-3-methylimidazolium iodide], 10.6 µM.
The compound `CCCCCCCCCCCCn1cc[n+](C)c1` [1-Dodecyl-3-methylimidazolium tetrafluoroborate] showed an IC50 of 4.04 µM.
On to `CCCCCCCCCCCCn1cc[n+](C)c1` [1-Dodecyl-3-methylimidazolium trifluoromethanesulfonate], for which half-maximal inhibition (IC50) required 4.61 µM.
As to `CC[N+]1(C)CCCC1` [1-Ethyl-1-methylpyrrolidinium iodide], the midpoint of inhibition, the IC50, lay at 19.5 µM.
`CCCCCCCCCCCCCCCCn1cc[n+](C)c1` [1-Hexadecyl-3-methylimidazolium chloride] had an IC50 of 14.1 µM.
Compound `CCCCCCCCCCCCCCCCn1cc[n+](C)c1` [1-Hexadecyl-3-methylimidazolium tetrafluoroborate] had an IC50 of 9.86 µM.
Next, `CCCCCC[n+]1ccn(C)c1.O=S(=O)([N-]S(=O)(=O)C(F)(F)F)C(F)(F)F` [1-Hexyl-3-methylimidazolium bis(trifluoromethylsulfonyl)imide]: 45.4 µM; `CCCCCCn1cc[n+](C)c1` [1-Hexyl-3-methylimidazolium tetrafluoroborate]: 60.6 µM.
Under `CCCCCCCCCCCCCCCCCC[n+]1ccn(C)c1` [1-Methyl-3-octadecylimidazolium hexafluorophosphate] stands 4.02 µM; under `CCCCCCCC[n+]1ccn(C)c1` [1-Methyl-3-octylimidazolium chloride], 19.4 µM; under `CCCCCCCC[n+]1ccn(C)c1` [1-Methyl-3-octylimidazolium hexafluorophosphate], 17.6 µM.
Next, `CCCCCCCC[n+]1ccn(C)c1` [1-Methyl-3-octylimidazolium trifluoromethanesulfonate]: 21.2 µM; `Cc1cccc(Oc2ccccc2)c1` [1-Methyl-3-phenoxybenzene]: 23.9 µM; `CCCCCCCCCCCCCCn1cc[n+](C)c1` [1-Methyl-3-tetradecylimidazolium chloride]: 8.62 µM.
For `CCCCCCOc1cc(C)c(O)c(C)c1C` [1-O-Hexyl-2,3,5-trimethylhydroquinone], the IC50 was 31.3 µM.
Consider `O=C1C=CC(=O)N1c1ccccc1` [1-Phenyl-1H-pyrrole-2,5-dione], for which it took 50.9 µM to reach half-maximal inhibition (IC50).
The compound `CCCCCCCCCCCCCCN(CCO)CCO` [2,2'-(Tetradecylimino)diethanol] showed an IC50 of 16.1 µM.
Next, `Clc1ccccc1-c1ccccc1Cl` [2,2'-Dichlorobiphenyl]: 17.6 µM; `Cc1cc(Cc2cc(C)cc(C(C)(C)C)c2O)c(O)c(C(C)(C)C)c1` [2,2'-Methylenebis(4-methyl-6-tert-butylphenol)]: 31.1 µM; `CCc1cc(Cc2cc(CC)cc(C(C)(C)C)c2O)c(O)c(C(C)(C)C)c1` [2,2'-Methylenebis(ethyl-6-tert-butylphenol)]: 17.4 µM.
For `CC(C)C(OC(=O)c1ccccc1)C(C)(C)COC(=O)c1ccccc1` (stereo not drawn) [2,2,4-Trimethylpentane-1,3-diyl dibenzoate], the IC50 is 21.9 µM.
Under `OCC(c1ccc(Cl)cc1)c1ccc(Cl)cc1` [2,2-Bis(4-chlorophenyl)ethanol] stands 49 µM; under `Oc1ccc(C(c2ccc(O)cc2)C(Cl)(Cl)Cl)cc1` [2,2-Bis(4-hydroxyphenyl)-1,1,1-trichloroethane], 54.9 µM.
Next, `CCC(COC(=O)CCS)(COC(=O)CCS)COC(=O)CCS` [2,2-Bis{[(3-sulfanylpropanoyl)oxy]methyl}butyl 3-sulfanylpropanoate]: 38.9 µM; `O=C(c1ccccc1)C(Cl)Cl` [2,2-Dichloro-1-phenylethanone]: 36 µM.
Next, `Clc1nc(C(Cl)(Cl)Cl)c(Cl)c(Cl)c1Cl` [2,3,4,5-Tetrachloro-6-(trichloromethyl)pyridine]: 49 µM; `CCCCOCCOC(=O)COc1cc(Cl)c(Cl)cc1Cl` [2,4,5-T-butotyl]: 23.2 µM; `CC(C)(C)c1cc(C(C)(C)C)c(O)c(C(C)(C)C)c1` [2,4,6-Tris(tert-butyl)phenol]: 17.4 µM.
Regarding `CC(C)(c1ccccc1)c1ccc(O)c(C(C)(C)c2ccccc2)c1` [2,4-Bis(1-methyl-1-phenylethyl)phenol], the IC50 is 21.7 µM.
`CC(C)COC(=O)COc1ccc(Cl)cc1Cl` [2,4-D-isobutyl] showed an IC50 of 43.6 µM.
Compound `O=[N+]([O-])c1cc(C(F)(F)F)c(Cl)c([N+](=O)[O-])c1Cl` [2,4-Dichloro-1,3-dinitro-5-(trifluoromethyl)benzene] gave an IC50 of 34.7 µM.
`O=S(=O)(Oc1ccc(Cl)cc1Cl)c1ccccc1` [2,4-Dichlorophenyl benzenesulfonate] gave a 50% inhibitory concentration (IC50) of 51.8 µM.
Compound `CCc1cc(C(C)(C)C)c(O)c(C(C)(C)C)c1` [2,6-Di-tert-butyl-4-ethylphenol] gave an IC50 of 19.5 µM.

What is called IC50 is the concentration that inhibits the measured activity by half. A low value points to inhibition by little substance.
